Measured values taken from patent publication US10556865B2, “Synergistic herbicidal composition containing certain pyridine or pyrimidine carboxylic acids and certain cereal and rice herbicides” (Dow AgroSciences, LLC, priority 2007, dated 2020).
Like-named read-outs stand apart in the source and are kept apart here.

Legend:
Format in all cases: in vivo
[1] = test system: Cyperus iria L. (CYPIR); assay: Postemergence herbicidal mixtures for weed control in direct seeded rice (greenhouse, visual % injury); details: for % Injury Ob: CYPIR
[2] = test system: wild pansy (Viola tricolor L; VIOTR); assay: Postemergence herbicidal activity of mixtures in cereal crops (greenhouse, visual injury); details: Viola tricolor, post-emergence, read-out: VIOTR Ob
Procedure, shortened: (§1)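 Weeds grown in greenhouse (~14 h photoperiod, ~18/17 °C day/night) to second–third true leaf stage, sprayed postemergence with compound and second cereal herbicide alone or combined; solvent-blank controls. Injury scored visually after 20-22 days, 0–100% (complete kill); expected mixture activity = A+B−(A×B/100).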

[3] = test system: bird's-eye speedwell (Veronica persica L; VERPE); assay: as above; details: for VERPE Ob: Table 28
Procedure, shortened: as §1

[4] = test system: Scirpus species (SCPSS); assay: Herbicidal mixtures for weed control in transplanted paddy rice (in-water application, visual % injury); details: SCPJU
Procedure, shortened: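 Weeds sown in flooded puddled mineral soil (pH ~7.3–7.8, ~1.0% organic matter) and treated at second–third true leaf stage by injecting acetone/2.5% Agri-dex stock into the paddy water. A, C and D dosed as acid equivalent, partner herbicides as active ingredient. Injury scored visually after 3 weeks in greenhouse, 0–100% versus untreated plants.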

O=C(O)c1c(Cl)ccc2cc(Cl)cnc12 [Quinclorac] was tested, and the “% Injury Ob” value ([1]; 140 g/ha alone) was 0%.
COc1c(Cl)ccc(-c2cc(N)c(Cl)c(C(=O)O)n2)c1F [Compound A TEA, 4-amino-3-chloro-6-(4-chloro-2-fluoro-3-methoxyphenyl)pyridine-2-carboxylic acid] was tested, and the pest or weed control at 8.75 g/ha ([2]; 8.75 g/ha alone) was 30%, the pest or weed control at 17.5 g/ha ([2]; 17.5 g/ha alone) was 40% and the pest or weed control at 35 g/ha ([2]; 35 g/ha alone) was 47%. The pest or weed control at 35 g/ha ([2]; 35 g/ha) was 30%, the pest or weed control at 70 g/ha ([2]; 70 g/ha alone) was 60% and the pest or weed control at 70 g/ha ([2]; 70 g/ha) was 60%. The pest or weed control at 140 g/ha ([2]; 140 g/ha) was 60%, the “VERPE Ob” value ([3]; 35 g/ha) was 75% and the “VERPE Ob” value ([3]; 70 g/ha) was 80%. For the same compound, the “VERPE Ob” value ([3]; 140 g/ha) was 85%, the pest or weed control at 8.75 g/ha ([3]; Veronica persica, post-emergence, 8.75 g/ha alone, read-out: VERPE Ob) was 48% and the pest or weed control at 17.5 g/ha ([3]; Veronica persica, post-emergence, 17.5 g/ha alone, read-out: VERPE Ob) was 68%. It also gave a pest or weed control at 35 g/ha ([3]; Veronica persica, post-emergence, 35 g/ha alone, read-out: VERPE Ob) of 79%, a pest or weed control at 35 g/ha ([3]; Veronica persica, post-emergence, 35 g/ha, 1st VERPE column, read-out: VERPE Ob) of 60% and a pest or weed control at 35 g/ha ([3]; Veronica persica, post-emergence, 35 g/ha, 2nd VERPE column, read-out: VERPE Ob) of 75%. It also gave a pest or weed control at 70 g/ha ([3]; Veronica persica, post-emergence, 70 g/ha alone, read-out: VERPE Ob) of 88%, a pest or weed control at 70 g/ha ([3]; Veronica persica, post-emergence, 70 g/ha, 1st VERPE column, read-out: VERPE Ob) of 60% and a pest or weed control at 70 g/ha ([3]; Veronica persica, post-emergence, 70 g/ha, 2nd VERPE column, read-out: VERPE Ob) of 80%. The pest or weed control at 140 g/ha ([3]; Veronica persica, post-emergence, 140 g/ha, 1st VERPE column, read-out: VERPE Ob) was 60%, the pest or weed control at 140 g/ha ([3]; Veronica persica, post-emergence, 140 g/ha, 2nd VERPE column, read-out: VERPE Ob) was 85% and the “% Injury Ob” value ([4]; 17.5 g/ha alone) was 60%. The “% Injury Ob” value ([4]; 35 g/ha alone) was 85% and the “% Injury Ob” value ([4]; 70 g/ha alone) was 95%.
In the case of COC(=O)c1nc(-c2ccc(Cl)c(OC)c2F)cc(N)c1Cl [Compound A Methyl, 4-amino-3-chloro-6-(4-chloro-2-fluoro-3-methoxyphenyl)pyridine-2-carboxylic acid methyl ester], the pest or weed control at 17.5 g/ha ([2]; 17.5 g/ha) was 55%, the pest or weed control at 35 g/ha ([2]; 35 g/ha) was 63% and the pest or weed control at 70 g/ha ([2]; 70 g/ha) was 75%. For the same compound, the pest or weed control at 17.5 g/ha ([3]; Veronica persica, post-emergence, 17.5 g/ha, read-out: VERPE Ob) was 45%, the pest or weed control at 35 g/ha ([3]; Veronica persica, post-emergence, 35 g/ha, read-out: VERPE Ob) was 58% and the pest or weed control at 70 g/ha ([3]; Veronica persica, post-emergence, 70 g/ha, read-out: VERPE Ob) was 70%. The “% Injury Ob” value ([4]; 17.5 g/ha alone) was 90%, the “% Injury Ob” value ([1]; 35 g/ha alone) was 50% and the “% Injury CYPIR Ob” value ([1]; alone 4.38 g/ha) was 70%. The “% Injury CYPIR Ob” value ([1]; alone 35 g/ha) was 50%.
